pIC50: −log10 of the molar value. Where two headings read alike, the source gives them in different places.
How the values were obtained:
MV4;11 cells = test: MTT cell proliferation assay; type: cell-based; conditions: Homo sapiens
Method: The ability of a compound of the present disclosure to inhibit the growth of cells was tested in MLL leukemia cell lines (e.g., MV4;11) using the MTT cell proliferation assay (ATCC® 30-1010K). […] Cells were plated at about 1×10^5 cells per well in a 96-well plate. A compound of the present disclosure was added at a concentration up to about 2 μM with seven, 2-fold serial dilutions for each compound. Cells were incubated at 37° C. for 72 hours, then cells in the control wells were counted. Media was changed to restore viable cell numbers to the original concentration, and compounds were re-supplied. Proliferation was measured 96 hours later using MTT reagents, as per kit instructions. […] As used in the Examples and Figures herein, Compound A refers to Compound 3 in Table 1.

[1] = target: T1, menin-MLL interaction (Menin MLL 4-43) (Homo sapiens, UniProt O00255); test: Fluorescence polarization (FP) competition assay; type: binding
T1 sequence (O00255 1-610): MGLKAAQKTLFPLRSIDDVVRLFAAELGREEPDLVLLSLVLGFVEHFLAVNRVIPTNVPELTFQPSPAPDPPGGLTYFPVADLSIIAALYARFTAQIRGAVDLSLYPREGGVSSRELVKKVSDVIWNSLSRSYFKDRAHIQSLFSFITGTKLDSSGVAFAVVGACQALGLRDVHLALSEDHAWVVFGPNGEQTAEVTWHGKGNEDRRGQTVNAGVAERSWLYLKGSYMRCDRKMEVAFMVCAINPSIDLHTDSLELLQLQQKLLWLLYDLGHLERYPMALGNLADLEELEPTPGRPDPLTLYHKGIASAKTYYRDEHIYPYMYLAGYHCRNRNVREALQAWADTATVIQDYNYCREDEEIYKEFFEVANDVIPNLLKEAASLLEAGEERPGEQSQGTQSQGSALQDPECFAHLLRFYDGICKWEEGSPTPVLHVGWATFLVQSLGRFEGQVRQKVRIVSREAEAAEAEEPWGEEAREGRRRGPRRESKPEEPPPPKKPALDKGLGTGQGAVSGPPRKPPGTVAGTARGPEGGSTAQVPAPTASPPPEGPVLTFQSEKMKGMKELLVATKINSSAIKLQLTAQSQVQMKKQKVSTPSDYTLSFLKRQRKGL

[2] = tested on: MV4;11 (human leukemia) tumor; test: Efficacy study in mouse xenograft tumor model; type: in vivo; conditions: female nude mice, subcutaneous MV4;11, oral gavage 150 mg/kg bid
Method: Immunocompromised 8-10 week-old female nude (nu/nu) mice were used for in vivo efficacy studies in accordance with IACUC guidelines. Human MV4;11 leukemia cells available from ATCC were implanted subcutaneously into female nude mice (5×10^6 cells/mouse). When the tumor reached a size of approximately 150 to 250 mm^3, the tumor-bearing mice were randomly assigned to a vehicle control or a compound treatment group (8 mice per group). Mice in the treatment group were administered a compound of the present disclosure by oral gavage (150 mg/kg, bid). Subcutaneous tumor volume and mouse body weight were measured twice weekly. Tumor volumes were calculated by measuring two perpendicular diameters with calipers (V=(length×width^2)/2). […] As used in the Examples and Figures herein, Compound B refers to Compound 82 in Table 1.

[3] = fluorescence polarization assay, read-out: Menin MLL 4-43 IC50
[4] = measured in accordance with Example 8, read-out: IC50 value (ability of the compound to disrupt the menin-MLL interaction)

Row | Structure (SMILES) | pIC50 [1, 3] | also measured
1 | CCC(=O)NC12CC(Cn3c(C#N)cc4c(C)c(CN5CCC(Nc6ncnc7sc(CC(F)(F)F)cc67)CC5)ccc43)(C1)C2 [Compound 3] | 6.60 to 7.30 | GI50 (MV4;11 cells): 40 nM; pIC50 [1, 4]: ≥ 7.30; MV4;11 tumor growth (tumor volume) relative to vehicle control [2]: inhibited tumor growth and induced tumor regression
2 | Cc1c(CN2CCC(Nc3ncnc4sc(CC(F)(F)F)cc34)CC2)ccc2c1cc(C#N)n2CC12CC(NC(=O)C(C)(C)N)(C1)C2 [Compound 59] | > 7.30 | 
3 | CC[C@@H](N)C(=O)NC12CC(Cn3c(C#N)cc4c(C)c(CN5CCC(Nc6ncnc7sc(CC(F)(F)F)cc67)CC5)ccc43)(C1)C2 [Compound 71] | > 7.30 | 
4 | Cc1c(CN2CCC(Nc3ncnc4sc(CC(F)(F)F)cc34)CC2)ccc2c1cc(C#N)n2CC12CC(NC(=O)CN)(C1)C2 (single isomer, unassigned) [Compound 61] | 6.00 to 6.60 | 
5 | CCC(=O)NC12CC(CCn3c(C#N)cc4c(C)c(CN5CCC(Nc6ncnc7sc(CC(F)(F)F)cc67)CC5)ccc43)(C1)C2 [Compound 12] | < 6.00 | 
6 | Cc1c(CN2CCC(Nc3ncnc4sc(CC(F)(F)F)cc34)CC2)ccc2c1cc(C#N)n2CC12CC(NC(=O)CNS(C)(=O)=O)(C1)C2 [Compound 36] | 6.60 to 7.30 | 
7 | Cc1c(CN2CCC(Nc3ncnc4sc(CC(F)(F)F)cc34)CC2)ccc2c1cc(C#N)n2CC12CC(N(C3CC3)C3CC3)(C1)C2 [Compound 49] | < 6.00 | 
8 | Cc1c(CN2CCC(Nc3ncnc4sc(CC(F)(F)F)cc34)CC2)ccc2c1cc(C#N)n2CC12CC(NC(=O)CNC3CC3)(C1)C2 [Compound 42] | 6.60 to 7.30 | 
9 | Cc1c(CN2CCC(Nc3ncnc4sc(CC(F)(F)F)cc34)CC2)ccc2c1cc(C#N)n2CC12CC(N)(C1)C2 [Compound 13] | 6.60 to 7.30 | 

Continued, in another order:

Row | pIC50 [1, 3] | Structure (SMILES) | also measured
10 | > 7.30 | CNc1nc(NC2CCN(Cc3ccc4c(cc(C#N)n4CC45CC(NC(C)=O)(C4)C5)c3C)CC2)c2cc(CC(F)(F)F)sc2n1 [Compound 82] | pIC50 [1, 4]: ≥ 7.30; MV4;11 tumor growth (tumor volume) relative to vehicle control [2]: inhibited tumor growth and induced tumor regression
11 | 6.60 to 7.30 | CCC(=O)NC12CC(Cn3c(C#N)cc4cc(CN5CCC(Nc6ncnc7sc(CC(F)(F)F)cc67)CC5)c(O)cc43)(C1)C2 [Compound 75] | 
12 | 6.60 to 7.30 | CCCCC(NC)C(=O)NC12CC(Cn3c(C#N)cc4c(C)c(CN5CCC(Nc6ncnc7sc(CC(F)(F)F)cc67)CC5)ccc43)(C1)C2 (stereo not drawn) [Compound 73] | 
13 | 6.00 to 6.60 | Cc1c(CN2CCC(Nc3ncnc4sc(CC(F)(F)F)cc34)CC2)ccc2c1cc(C#N)n2CC12CC(NC(=O)Cc3cccc(N)c3)(C1)C2 [Compound 78] | 

— patent US11555041B2, “Bridged bicyclic inhibitors of menin-MLL and methods of use” (Kura Oncology, Inc., priority 2016, dated 2023)
